US9937180B2, “Constrained tricyclic sulfonamides” (ICAHN SCHOOL OF MEDICINE AT MOUNT SINAI, priority 2014, dated 2018)
Several values for one entry are separate records, joined by “and”; a condition that tells them apart may be missing. Equal values may be shown once.

Columns and labels:
[1] = test system: H1650; assay: H1650 Cell Viability Assays (GI50 Determination), MTT; type: cell-based; details: Homo sapiens, NCI-H1650, H1650 cells, 48 hours after drug treatment
Method: H1650 Cell Viability Assays (GI50 Determination)
Cell viability assays were performed according to Denizot, F. and R. Lang, Rapid colorimetric assay for cell growth and survival: Modifications to the tetrazolium dye procedure giving improved sensitivity and reliability Journal of Immunological Methods, 1986. 89[…]: p. 271-277.
Cells were plated at 150,000 cells per well in a 12 well plate. Twenty-four hours after plating, cells were treated as described with increasing concentrations of drug and control. Forty-eight hours after drug treatment, cells were treated with 100 uL of 3-(4,5-Dimethylthiazol-2-yl)-2,5-diphenyltetrazolium bromide (MTT) and incubated for 2 hours at 37 C. The MTT solution was subsequently replaced with 300 uL of n-propyl alcohol and re-aliquoted to a 96 well plates. Spectrophotometric analysis of each solution was performed using a 96 well plate reader at 600 nm in triplicate.

[2] = test system: Molt4 cells; assay: MTS Cell Proliferation Assay (CellTiter96 AQueous); type: cell-based; details: Homo sapiens, MOLT-4, 48 hours, average of 3 biological replicates
Method: MTS Cell Proliferation Assay GI50 for Example 3a and 3b for Molt4 cells was measured using the CellTiter96 AQueous Non-Radioactive Cell Proliferation Assay (Promega). Briefly, two technical replicates of 1×10^5 cells suspended in 50 μL RPMI-1640 media were pipetted per well into a 96-well plate for each condition. An equal volume of Example 3a or 3b was dissolved in media or vehicle control (DMSO) was added to each well for final concentration of 0, 5, 10, 15, 20, 30, 40, or 80 μM of 3a or 3b. Cells were allowed to grow for 48 hours at 37° C. with 5% CO2, after which 20 μL of MTS/PMS solution was added to each well and cells were incubated for an additional 4 hrs. At the end of the incubation period, A490 was read on a Biotek uQuant spectrophotometer to measure formazen production. Relative viability was calculated as A490 for each drug condition relative to vehicle alone.

[3] = Observation for signs of toxicity and body weights in the mouse tumor assay; type: in vivo; details: mice, 100 mg/kg BID oral, 31 days
Method: (§1) To assess the in vivo effects of the compounds, subcutaneous xenograft of prostate cancer cell line LNCaP was generated. Cells (5×10^6, 0.1 mL in 1:1 Matrigel:Media) were injected into the right flank of 8-week-old male SCID nude castrated mice (NCI). Tumor volume was assessed three times a week by caliper measurement. Mice were randomized to treatment groups based on initial tumor volume average of 247 mm^3 per group. Mice were dosed by oral gauvage with 100 mg/kg of Example 3a twice daily (BID) as a suspension in 0.1% Tween80/0.5% sodium carboxymethylcellulose (CMC) in water. […] Mouse body weights were recorded weekly and percentage of mice body weights during treatment was calculated as: weight at each time point/initial weight×100. […] Mice underwent treatment for 31 days and were sacrificed 2 hours after the last dose. Tumors were then excised and cut for both formalin-fixation and snap frozen in liquid nitrogen. No statistically significant toxicity was observed as judged from animal body weights of compound treated groups versus vehicle control group.

[4] = test system: prostate cancer cell line LNCaP; assay: Mouse Tumor Assay: subcutaneous xenograft of prostate cancer cell line LNCaP; type: in vivo; details: LNCaP xenograft in male SCID nude castrated mice, 100 mg/kg BID oral gavage
Method: as §1, with “Mouse Tumor Assay To” for “To”

| Compound | GI50 [1] | also measured |
| --- | --- | --- |
| O=S(=O)(N[C@H]1CCC[C@@H](N2c3ccccc3C=Cc3ccccc32)[C@@H]1O)c1ccc(OC(F)(F)F)cc1 (racemic) [Example 25, rac-N-((1S,2S,3R)-3-(5H-dibenzo[b,f]azepin-5-yl)-2-hydroxycyclohexyl)-4-(trifluoromethoxy)benzenesulfonamide] | 10 µM |  |
| O=S(=O)(N[C@H]1CCCC(N2c3ccccc3CCc3ccccc32)[C@@H]1O)c1ccc(OC(F)(F)F)cc1 (relative stereo) [Example 2, N-((1,2-trans)-3-(10,11-dihydro-5H-dibenzo[b,f]azepin-5-yl)-2-hydroxycyclohexyl)-4-(trifluoromethoxy)benzenesulfonamide] | 15 µM |  |
| O=S(=O)(N[C@@H]1CCCC(N2c3ccccc3CCc3ccccc32)[C@H]1O)c1ccc(Cl)cc1 (relative stereo) [Example 4, N-(3-(10,11-dihydro-5H-dibenzo[b,f]azepin-5-yl)-2-hydroxycyclohexyl)-4-(chloro)benzenesulfonamide] | 10 µM |  |
| O=S(=O)(N[C@@H]1CCC(N2c3ccccc3CCc3ccccc32)[C@H]1O)c1ccc(OC(F)(F)F)cc1 (relative stereo) [Example 17, N-((1S,2S,3R)-rel-3-(10,11-dihydro-5H-dibenzo[b,f]azepin-5-yl)-2-hydroxycyclopentyl)-4-(trifluoromethoxy)benzenesulfonamide] | 15 µM |  |
| O=S(=O)(N[C@@H]1CCC(N2c3ccccc3CCc3ccccc32)[C@H]1O)c1ccc(Cl)cc1 (relative stereo) [Example 18, 4-chloro-N-((1S,2S,3R)-rel-3-(10,11-dihydro-5H-dibenzo[b,f]azepin-5-yl)-2-hydroxycyclopentyl)benzenesulfonamide] | 20 µM |  |
| O=S(=O)(N[C@@H]1CCCC(N2c3ccccc3Sc3ccccc32)[C@H]1O)c1ccc(Cl)cc1 (relative stereo) [Example 21, 4-chloro-N-((1R,2R,3S)-rel-2-hydroxy-3-(10H-phenothiazin-10-yl)cyclohexyl)benzenesulfonamide] | 10 µM |  |
| [N-]=[N+]=Nc1ccc(S(=O)(=O)N[C@@H]2CCCC(N3c4ccccc4CCc4ccccc43)[C@H]2O)cc1 (stereo in doubt) [Example 5, N-(3-(10,11-dihydro-5H-dibenzo[b,f]azepin-5-yl)-2-hydroxycyclohexyl)-4-(azido)benzenesulfonamide] | 15 µM |  |
| O=S(=O)(N[C@H]1CCC[C@@H](N2c3ccccc3CCc3ccccc32)[C@@H]1O)c1ccc(OC(F)F)cc1 (stereo in doubt) [Example 32, 4-(difluoromethoxy)-N-(3-(10,11-dihydro-5H-dibenzo[b,f]azepin-5-yl)-2-hydroxycyclohexyl)benzenesulfonamide] | 10 µM |  |
| O=S(=O)(N[C@H]1CCC[C@@H](N2c3ccccc3CCc3ccccc32)[C@@H]1O)c1ccc(OC(F)(F)F)cc1 [Example 3a] | 5 µM | GI50 [2]: 6 µM; signs of toxicity (mucous diarrhea, abdominal stiffness and weight loss) [3]: no adverse signs were observed; Mean Tumor Volume(T) ([4]; 31 days): 485 mm³; % T/C ([4]; end of experiment (31 days), tumor versus vehicle control, 100 mg/kg): 35% and 34.6% |
| O=S(=O)(N[C@H]1CCC[C@@H](N2c3ccc(F)cc3CCc3cc(F)ccc32)[C@@H]1O)c1ccc(OC(F)(F)F)cc1 [Example 22, N-((1S,2S,3R)-3-(2,8-difluoro-10,11-dihydro-5H-dibenzo[b,f]azepin-5-yl)-2-hydroxycyclohexyl)-4-(trifluoromethoxy)benzenesulfonamide] | 7 µM |  |
| COc1ccc(S(=O)(=O)N[C@H]2CCC[C@@H](N3c4ccccc4CCc4ccccc43)[C@@H]2O)cc1 [Example 23, N-((1S,2S,3R)-3-(10,11-dihydro-5H-dibenzo[b,f]azepin-5-yl)-2-hydroxycyclohexyl)-4-methoxybenzenesulfonamide] | 20 µM |  |
| CC(=O)c1ccc(S(=O)(=O)N[C@H]2CCC[C@@H](N3c4ccccc4CCc4ccccc43)[C@@H]2O)cc1 [Example 26, 4-Acetyl-N-((1S,2S,3R)-3-(10,11-dihydro-5H-dibenzo[b,f]azepin-5-yl)-2-hydroxycyclohexyl)benzenesulfonamide] | 20 µM |  |
| CC(C)(O)c1ccc(S(=O)(=O)N[C@H]2CCC[C@@H](N3c4ccccc4CCc4ccccc43)[C@@H]2O)cc1 [Example 27, N-((1S,2S,3R)-3-(10,11-dihydro-5H-dibenzo[b,f]azepin-5-yl)-2-hydroxycyclohexyl)-4-(2-hydroxypropan-2-yl)benzenesulfonamide] | 15 µM |  |

More lines, in order of falling GI50 [1], values ahead:

| GI50 [1] | Compound | also measured |
| --- | --- | --- |
| 5 µM | O=S(=O)(N[C@@H]1CCCC(N2c3ccccc3CCc3ccccc32)[C@H]1O)c1ccc(OC(F)(F)F)cc1 (relative stereo) [Example 1, N-((1,2-trans)-3-(10,11-dihydro-5H-dibenzo[b,f]azepin-5-yl)-2-hydroxycyclohexyl)-4-(trifluoromethoxy)benzenesulfonamide] |  |
| 5 µM | O=S(=O)(N[C@@H]1CCCC(N2c3ccccc3Sc3ccccc32)[C@H]1O)c1ccc(OC(F)(F)F)cc1 (relative stereo) [Example 20, N-((1R,2R,3S)-rel-2-hydroxy-3-(10H-phenothiazin-10-yl)cyclohexyl)-4-(trifluoromethoxy)benzenesulfonamide] |  |
| 5 µM | O=S(=O)(N[C@H]1CCC[C@@H](N2c3ccccc3CCc3ccccc32)[C@@H]1O)c1ccc(OC(F)(F)F)cc1Cl (stereo in doubt) [Example 29, 2-chloro-N-(3-(10,11-dihydro-5H-dibenzo[b,f]azepin-5-yl)-2-hydroxycyclohexyl)-4-(trifluoromethoxy)benzenesulfonamide] |  |
| 5 µM | O=S(=O)(N[C@H]1CCC[C@@H](N2c3ccccc3CCc3ccccc32)[C@@H]1O)c1ccc(OC(F)(F)F)c(Cl)c1 (stereo in doubt) [Example 33, 3-chloro-N-(3-(10,11-dihydro-5H-dibenzo[b,f]azepin-5-yl)-2-hydroxycyclohexyl)-4-(trifluoromethoxy)benzenesulfonamide] |  |
| 5 µM | O=S(=O)(N[C@@H]1CCC[C@H](N2c3ccccc3CCc3ccccc32)[C@H]1O)c1ccc(OC(F)(F)F)cc1 [Example 3b] | GI50 [2]: 8 µM |
| 5 µM | O=S(=O)(N[C@H]1CCC[C@@H](N2c3ccccc3CCc3cc(F)ccc32)[C@@H]1O)c1ccc(OC(F)(F)F)cc1 [Example 24, N-((1S,2S,3R)-3-(2-fluoro-10,11-dihydro-5H-dibenzo[b,f]azepin-5-yl)-2-hydroxycyclohexyl)-4-(trifluoromethoxy)benzenesulfonamide] |  |
| 5 µM | O=S(=O)(N[C@H]1CCC[C@@H](N2c3ccccc3CCc3ccccc32)[C@@H]1O)c1ccc(SC(F)(F)F)cc1 [Example 28, N-(3-(10,11-dihydro-5H-dibenzo[b,f]azepin-5-yl)-2-hydroxycyclohexyl)-4-((trifluoromethyl)thio)benzenesulfonamide] |  |
| 5 µM | O=S(=O)(N[C@H]1CCC[C@@H](N2c3ccccc3CCc3ccccc32)[C@@H]1O)c1ccc(CC(F)(F)F)cc1 [Example 30, N-(3-(10,11-dihydro-5H-dibenzo[b,f]azepin-5-yl)-2-hydroxycyclohexyl)-4-(2,2,2-trifluoroethyl)benzenesulfonamide] |  |
| 5 µM | O=S(=O)(N[C@H]1CCC[C@@H](N2c3ccccc3CCc3ccccc32)[C@@H]1O)c1ccc(C(F)(F)C(F)(F)F)cc1 [Example 31, N-(3-(10,11-dihydro-5H-dibenzo[b,f]azepin-5-yl)-2-hydroxycyclohexyl)-4-(perfluoroethyl)benzenesulfonamide] |  |
